How the values were obtained:
[1] = biological target: T1, Peroxiredoxin-1 (Homo sapiens, UniProt Q06830); assay: Inhibition of recombinant PRDX1 (unknown origin) using H2O2 as substrate preincubated for 0.5 hrs followed by substrate addition by TRX-TrxR-NADPH coupling assay
T1 sequence (Q06830 whole entry): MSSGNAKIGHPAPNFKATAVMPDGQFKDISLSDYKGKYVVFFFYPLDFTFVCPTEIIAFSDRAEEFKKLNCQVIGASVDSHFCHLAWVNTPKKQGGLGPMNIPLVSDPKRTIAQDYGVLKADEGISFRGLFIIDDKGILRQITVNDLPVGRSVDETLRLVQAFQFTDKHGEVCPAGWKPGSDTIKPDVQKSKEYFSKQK

[2] = system: HCT-116; assay: Inhibition of cell viability in human HCT-116 cells incubated for 72 hrs by Cell Titer Glo assay; type: functional, cell-based; settings: HCT-116, 72 h
[3] = system: SW-620; assay: Inhibition of cell viability in human SW620 cells incubated for 72 hrs by Cell Titer Glo assay; type: functional, cell-based; settings: SW-620, 72 h
[4] = Acute toxicity in C57BL/[…] 6J mouse assessed as animal death at 20 mg/kg, ip measured for 2 days; type: organism-based; settings: in vivo, 48 h, time 2 day
[5] = Acute toxicity in C57BL/[…] 6J mouse assessed as pathological change in liver at 20 mg/kg, ip measured for 2 weeks by H and E staining based analysis; type: organism-based; settings: in vivo, 336 h
[6] = system: SW-620; assay: cells; settings: Homo sapiens, SW-620, 48 h, read-out: Activity
Description: Induction of apoptosis in human SW620 cells assessed as viable cells at 2 uM incubated for 48 hrs by Annexin V-FITC/PI staining based flow cytometry (Rvb = 90.7 %)

[7] = system: SW-620; assay: cells; settings: Homo sapiens, SW-620, 48 h, read-out: Activity; remark: listed apart in the source
Description: Induction of apoptosis in human SW620 cells assessed as viable cells at 1 uM incubated for 48 hrs by Annexin V-FITC/PI staining based flow cytometry (Rvb = 90.7 %)

[8] = Acute toxicity in C57BL/[…] 6J mouse assessed as pathological change in heart at 20 mg/kg, ip measured for 2 weeks by H and E staining based analysis; type: organism-based; settings: in vivo, 336 h
[9] = system: SW-620; assay: Antitumor activity against human SW620 cells xenografted in BALB/c nude mouse at 2 mg/kg, ip qd for 16 days relative to control; type: functional; settings: SW-620, 384 h, time 16 day, read-out: TGI
[10] = Acute toxicity in C57BL/[…] 6J mouse assessed as pathological change in kidney at 20 mg/kg, ip measured for 2 weeks by H and E staining based analysis; type: organism-based; settings: in vivo, 336 h
[11] = Acute toxicity in C57BL/[…] 6J mouse assessed as pathological change in spleen at 20 mg/kg, ip measured for 2 weeks by H and E staining based analysis; type: organism-based; settings: in vivo, 336 h
[12] = system: SW-620; assay: cells; settings: Homo sapiens, SW-620, 48 h, read-out: Activity; remark: listed apart in the source
Description: Induction of apoptosis in human SW620 cells assessed as viable cells at 0.5 uM incubated for 48 hrs by Annexin V-FITC/PI staining based flow cytometry (Rvb = 90.7 %)

[13] = Toxicity in BALB/c nude mouse xenografted with human SW620 cells assessed as body weight loss at 2 mg/kg, ip qd for 7 days; type: organism-based, SW-620; settings: in vivo, 168 h, time 7 day

| Compound | IC50 [1] [nM] | IC50 [2] [nM] | IC50 [3] [nM] | further results |
| --- | --- | --- | --- | --- |
| CC1=C(O)C(=O)C=C2C1=CC=C1[C@@]2(C)CC[C@@]2(C)[C@@H]3C[C@](C)(NC(=O)N[C@H](C)CO)CC[C@]3(C)CC[C@]12C | 530 | 840 | 600 |  |
| CC1=C(O)C(=O)C=C2C1=CC=C1[C@@]2(C)CC[C@@]2(C)[C@@H]3C[C@](C)(NC(=O)N[C@H]4CCOC4=O)CC[C@]3(C)CC[C@]12C | 330 | 680 | 480 |  |
| COC(=O)CNC(=O)N[C@]1(C)CC[C@]2(C)CC[C@]3(C)C4=CC=C5C(=CC(=O)C(O)=C5C)[C@]4(C)CC[C@@]3(C)[C@@H]2C1 | 640 | 830 | 490 |  |
| COC(=O)[C@H](CCCCNC(=O)OC(C)(C)C)NC(=O)N[C@]1(C)CC[C@]2(C)CC[C@]3(C)C4=CC=C5C(=CC(=O)C(O)=C5C)[C@]4(C)CC[C@@]3(C)[C@@H]2C1 | 400 | 410 | 330 |  |
| CC1=C(O)C(=O)C=C2C1=CC=C1[C@@]2(C)CC[C@@]2(C)[C@@H]3C[C@](C)(NC(=O)NC(CO)CO)CC[C@]3(C)CC[C@]12C | 450 | 2700 | 1900 |  |
| CC1=C(O)C(=O)C=C2C1=CC=C1[C@@]2(C)CC[C@@]2(C)[C@@H]3C[C@](C)(NC(=O)NC4(C(=O)O)COC4)CC[C@]3(C)CC[C@]12C | > 20000 | > 20000 | > 20000 |  |
| COC(=O)[C@@H](NC(=O)N[C@]1(C)CC[C@]2(C)CC[C@]3(C)C4=CC=C5C(=CC(=O)C(O)=C5C)[C@]4(C)CC[C@@]3(C)[C@@H]2C1)[C@@H](C)O | 490 | 800 | 330 |  |
| COC(=O)[C@@H]1CCCN1C(=O)N[C@]1(C)CC[C@]2(C)CC[C@]3(C)C4=CC=C5C(=CC(=O)C(O)=C5C)[C@]4(C)CC[C@@]3(C)[C@@H]2C1 | 470 | 230 | 280 |  |
| CCOC(=O)C1(NC(=O)N[C@]2(C)CC[C@]3(C)CC[C@]4(C)C5=CC=C6C(=CC(=O)C(O)=C6C)[C@]5(C)CC[C@@]4(C)[C@@H]3C2)CC1 | 360 | 650 | 350 |  |
| COC(=O)CC[C@H](NC(=O)N[C@]1(C)CC[C@]2(C)CC[C@]3(C)C4=CC=C5C(=CC(=O)C(O)=C5C)[C@]4(C)CC[C@@]3(C)[C@@H]2C1)C(=O)OC | 370 | 570 | 350 |  |
| COC(=O)[C@H](CO)NC(=O)N[C@]1(C)CC[C@]2(C)CC[C@]3(C)C4=CC=C5C(=CC(=O)C(O)=C5C)[C@]4(C)CC[C@@]3(C)[C@@H]2C1 | 470 | 740 | 640 |  |
| CC1=C(O)C(=O)C=C2C1=CC=C1[C@@]2(C)CC[C@@]2(C)[C@@H]3C[C@](C)(C(=O)O)CC[C@]3(C)CC[C@]12C [CELASTROL] |  | 1400 | 670 | Activity [4]: Toxic; Activity [5]: Toxic; viability at 2 µM [6]: 27.4%; viability at 1 µM [7]: 84.2%; Activity [8]: Toxic; inhibition in vivo at 2 mg/kg [9]: 28%; Activity [10]: Toxic; Activity [11]: Toxic; viability at 0.5 µM [12]: 87.4%; Activity [13]: Toxic |
| COC(=O)[C@@H]1C[C@@H](O)CN1C(=O)N[C@]1(C)CC[C@]2(C)CC[C@]3(C)C4=CC=C5C(=CC(=O)C(O)=C5C)[C@]4(C)CC[C@@]3(C)[C@@H]2C1 | 360 | 440 | 260 |  |
| CC1=C(O)C(=O)C=C2C1=CC=C1[C@@]2(C)CC[C@@]2(C)[C@@H]3C[C@](C)(NC(=O)N[C@@H](C)C(N)=O)CC[C@]3(C)CC[C@]12C | 310 | 560 | 420 |  |
| COC(=O)[C@H](Cc1c[nH]c2ccccc12)NC(=O)N[C@]1(C)CC[C@]2(C)CC[C@]3(C)C4=CC=C5C(=CC(=O)C(O)=C5C)[C@]4(C)CC[C@@]3(C)[C@@H]2C1 | 340 | 560 | 310 |  |
| COC(=O)[C@@H](NC(=O)N[C@]1(C)CC[C@]2(C)CC[C@]3(C)C4=CC=C5C(=CC(=O)C(O)=C5C)[C@]4(C)CC[C@@]3(C)[C@@H]2C1)C(C)C | 460 | 340 | 190 |  |
| CC1=C(O)C(=O)C=C2C1=CC=C1[C@@]2(C)CC[C@@]2(C)[C@@H]3C[C@](C)(NC(=O)NCCOCCO)CC[C@]3(C)CC[C@]12C | 410 | 1000 | 790 |  |
| CC1=C(O)C(=O)C=C2C1=CC=C1[C@@]2(C)CC[C@@]2(C)[C@@H]3C[C@](C)(NC(=O)NC(CO)(CO)CO)CC[C@]3(C)CC[C@]12C | 500 | 2500 | 1100 |  |
| COC(=O)[C@H](CCSC)NC(=O)N[C@]1(C)CC[C@]2(C)CC[C@]3(C)C4=CC=C5C(=CC(=O)C(O)=C5C)[C@]4(C)CC[C@@]3(C)[C@@H]2C1 | 540 | 1800 | 1400 |  |
| COC(=O)C1(NC(=O)N[C@]2(C)CC[C@]3(C)CC[C@]4(C)C5=CC=C6C(=CC(=O)C(O)=C6C)[C@]5(C)CC[C@@]4(C)[C@@H]3C2)COC1 | 380 | 800 | 390 |  |
| CC1=C(O)C(=O)C=C2C1=CC=C1[C@@]2(C)CC[C@@]2(C)[C@@H]3C[C@](C)(NC(=O)N[C@H]4C[C@H](CO)[C@H](O)C4)CC[C@]3(C)CC[C@]12C | 460 | 3100 | 2100 |  |
| COC(=O)[C@H](C)NC(=O)N[C@]1(C)CC[C@]2(C)CC[C@]3(C)C4=CC=C5C(=CC(=O)C(O)=C5C)[C@]4(C)CC[C@@]3(C)[C@@H]2C1 | 490 | 800 | 330 |  |
| COC(=O)[C@H](Cc1ccc(O)cc1)NC(=O)N[C@]1(C)CC[C@]2(C)CC[C@]3(C)C4=CC=C5C(=CC(=O)C(O)=C5C)[C@]4(C)CC[C@@]3(C)[C@@H]2C1 | 420 | 430 | 220 |  |
